Some test systems named below: SK-OV-3 ovarian; UACC-257 melanoma; SW-620 colon; OVCAR-8 ovarian; LOX IMVI melanoma; HCT-116 colon; IGROV1 ovarian; SK-MEL-5 melanoma; PC-3 prostate; CAKI-1 renal.
Common to all, as to experiment: inhibition of tumour cell growth, NCI panel, 48 h

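The compound was tested at five concentrations on cells cultured in 96-well plates, with a 48-hour exposure period. Here, GI50 denotes the concentration required for 50% inhibition of growth. TGI is the concentration that stops growth completely.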 Bounds are passed on as bounds.

In the case of `CCN(CC)c1ccc2nc3ccc(=[N+](CC)CC)cc-3oc2c1`, the GI50 in the test on SK-OV-3 ovarian is 0.671 µM; in the test with UACC-257 melanoma, 0.0457 µM; with SW-620 colon, 0.0449 µM; with OVCAR-8 ovarian, 0.121 µM; with LOX IMVI melanoma it was 0.11 µM; with HCT-116 colon, 0.0402 µM. Besides, the GI50 is 0.107 µM with IGROV1 ovarian, 0.162 µM in the test on SK-MEL-5 melanoma, 0.0934 µM with PC-3 prostate and 2.71 µM in the test on CAKI-1 renal. In addition, the TGI is 4.75 µM with SK-OV-3 ovarian; 0.654 µM in the test on UACC-257 melanoma; greater than 100 µM with SW-620 colon; 1.59 µM in the test with LOX IMVI melanoma; 1.27 µM with HCT-116 colon; 0.862 µM with IGROV1 ovarian. Besides, the TGI is 1.17 µM with SK-MEL-5 melanoma, greater than 100 µM with PC-3 prostate and greater than 31.8 µM in the test on CAKI-1 renal.
Turning to `COCCN(CCOC)c1nc(-c2ccccc2)nc2ccccc12`, the GI50 is 31.9 µM with SK-OV-3 ovarian; 17.7 µM with UACC-257 melanoma; 33.9 µM with SW-620 colon; 33.7 µM in the test on OVCAR-8 ovarian; 34.7 µM in the test with LOX IMVI melanoma; 24.5 µM with HCT-116 colon. Moreover, the GI50 was 25.2 µM in the test with IGROV1 ovarian, 15.8 µM in the test on SK-MEL-5 melanoma, 15.1 µM in the test with PC-3 prostate and 23.2 µM with CAKI-1 renal. Also, the TGI in the test on SK-OV-3 ovarian is greater than 100 µM; in the test on UACC-257 melanoma, 36.6 µM; in the test with SW-620 colon it was greater than 100 µM; with OVCAR-8 ovarian, greater than 100 µM; with LOX IMVI melanoma, greater than 100 µM; in the test on HCT-116 colon, greater than 100 µM. Besides, the TGI was 93.6 µM with IGROV1 ovarian, 32.9 µM with SK-MEL-5 melanoma, 43.7 µM with PC-3 prostate and 73.2 µM with CAKI-1 renal.
As for `CCCCS(=O)c1sc2nc(-c3cccs3)cc(-c3ccccc3)c2c1N` (centres undefined), the GI50 with SK-OV-3 ovarian was 27.8 µM; in the test on UACC-257 melanoma, 25.1 µM; in the test with SW-620 colon it was 26 µM; in the test with OVCAR-8 ovarian, 19.9 µM; with LOX IMVI melanoma, 13 µM; in the test with HCT-116 colon, 12.3 µM. For the same molecule, the GI50 in the test on IGROV1 ovarian is 20.3 µM; in the test on SK-MEL-5 melanoma, 13.3 µM; in the test on PC-3 prostate, 3.45 µM; in the test on CAKI-1 renal it was 10.3 µM. For the same molecule, the TGI in the test on SK-OV-3 ovarian is 97.3 µM; with UACC-257 melanoma, 90.5 µM; in the test on SW-620 colon it was greater than 100 µM; in the test with OVCAR-8 ovarian it was greater than 100 µM; in the test with LOX IMVI melanoma, greater than 100 µM; in the test with HCT-116 colon it was greater than 100 µM. For the same molecule, the TGI with IGROV1 ovarian was greater than 100 µM; in the test on SK-MEL-5 melanoma it was 28.3 µM; in the test on PC-3 prostate it was greater than 86.6 µM; with CAKI-1 renal, greater than 100 µM.
For the molecule `OCCCCC#Cc1ccccc1C#Cc1cccc(C(F)(F)F)c1`, the GI50 with SK-OV-3 ovarian was 19.7 µM; with UACC-257 melanoma, 16.7 µM; in the test with SW-620 colon it was 16.9 µM; in the test with OVCAR-8 ovarian, 18.8 µM; in the test with LOX IMVI melanoma, 17.5 µM; in the test on HCT-116 colon it was 20.9 µM. In addition, the GI50 was 14.4 µM in the test on IGROV1 ovarian, 17.8 µM in the test with SK-MEL-5 melanoma, 18.2 µM in the test on PC-3 prostate and 21.3 µM with CAKI-1 renal. In addition, the TGI in the test with SK-OV-3 ovarian turned out to be 35.3 µM; in the test with UACC-257 melanoma it was 31.8 µM; with SW-620 colon, 37 µM; in the test with OVCAR-8 ovarian it was 35.7 µM; with LOX IMVI melanoma, 31.8 µM; in the test with HCT-116 colon it was 49.8 µM. For the same molecule, the TGI turned out to be 28.5 µM with IGROV1 ovarian, 32.7 µM with SK-MEL-5 melanoma, 33.7 µM in the test with PC-3 prostate and 36.5 µM in the test with CAKI-1 renal.
Consider `COCCN(Cc1ccc(F)cc1)c1ccc(CO)c(Cl)c1`, for which the GI50 was 38.6 µM with SK-OV-3 ovarian; 0.492 µM with UACC-257 melanoma; 7.29 µM in the test on SW-620 colon; 29.9 µM with OVCAR-8 ovarian; 36.2 µM with LOX IMVI melanoma; 0.821 µM in the test with HCT-116 colon. The GI50 is 0.559 µM in the test with IGROV1 ovarian, 12.2 µM with SK-MEL-5 melanoma, 29.4 µM in the test on PC-3 prostate and 21.2 µM with CAKI-1 renal. Besides, the TGI in the test on SK-OV-3 ovarian is greater than 100 µM; in the test on UACC-257 melanoma, 2.5 µM; in the test with SW-620 colon, greater than 100 µM; in the test with OVCAR-8 ovarian, greater than 100 µM; in the test with LOX IMVI melanoma, greater than 100 µM; in the test with HCT-116 colon, greater than 56.5 µM. Further, the TGI was 3.7 µM in the test with IGROV1 ovarian, 26.2 µM in the test with SK-MEL-5 melanoma, greater than 100 µM in the test on PC-3 prostate and greater than 100 µM in the test with CAKI-1 renal.
On to `CCO/C=C1\SC(=S)N(c2ccc(OCC)cc2)C1=O`, for which the TGI in the test on SK-OV-3 ovarian, in the test with UACC-257 melanoma, in the test with SW-620 colon, in the test on OVCAR-8 ovarian, with LOX IMVI melanoma and in the test with HCT-116 colon was greater than 100 µM throughout. In addition, the TGI in the test on IGROV1 ovarian, in the test on SK-MEL-5 melanoma, with PC-3 prostate and with CAKI-1 renal was greater than 100 µM each time.

Values taken from PubChem BioAssay (NCI).
